{"source": "patent US8962689B2", "about": "“Medium chain dicarboxylic acids, their derivates and metabolic disorders” (Nestec S.A., priority 2008, dated 2015)", "format_in_all_cases": "in vivo, human", "key": {"[1]": {"assay": "Time course of plasma sebacate in healthy subjects", "procedure": "FIG. 4 reports the time course of plasma sebacate in healthy subjects.\nFIG. 4 reports the time course of plasma sebacate in healthy subjects. The peak was reached after 320 minutes from the beginning of the experiment, i.e. […] after the ingestion of the meal enriched with C10. C10 peaked later (delay of 40 minutes) after 23 g C10 ingestion."}, "[2]": {"tested_on": "T2D subjects", "assay": "Cross-over single-blind pilot study, mixed formula meal with sebacic acid (C10), T2D subjects", "details": "for EGP (endogenous glucose production) / Gluconeogenesis / Glucose clearance / Total Ra (rate of appearance of deuterated glucose) / Glucose AUC / Insulin AUC / Total ISR (insulin secretion rate): type 2 diabetic subjects; for Glucose AUC / Insulin AUC / Total ISR (insulin secretion rate): 0-420 minutes, mean", "procedure": "(§1) Ingestion of the different meals was performed at 100 min.\n(§2) The acute effects of oral ingestion of sebacic acid on postprandial glycemia, hepatic gluconeogenesis and glycogenolysis were tested in T2D subjects and healthy volunteers during ingestion of a mixed meal at breakfast.\n(§3) Type 2 diabetic patients and healthy subjects were matched for gender distribution, age, and body mass index as reported in the following table 1:\n(§4) The subjects ingested the following formula meal\n(§5) No C10 group (control group): 50% CHO, 15% protein and 35% lipids plus water\n(§6) 10 g C10 group: 50% CHO, 15% protein and 35% lipids plus 10 g of C10 plus water"}, "[3]": {"tested_on": "healthy subjects", "assay": "Cross-over single-blind pilot study, mixed formula meal with sebacic acid (C10), healthy subjects", "details": "for Glucose AUC / Insulin AUC / Total ISR (insulin secretion rate): 0-420 minutes, mean", "procedure": "as §1, §2, §3, §4, §5, §6"}, "[4]": {"assay": "Time course of plasma sebacate in T2D subjects", "procedure": "FIG. 5 reports the time course of plasma sebacate in T2D subjects.\nFIG. 5 reports the time course of plasma sebacate in T2D subjects. […] Another difference was that in diabetics the two curves (10 g vs. 23 g) were overlapped up to 320 minutes, and then the concentration of C10 declined slower in the 23 g C10 fed patients compared with 10 g of C10."}, "[5]": {"details": "T2D subjects (n=10), 10 g meal, vs control meal"}, "[6]": {"details": "T2D subjects (n=10), 23 g C10 DA meal, vs control meal"}, "[7]": {"details": "healthy subjects, 10 g C10 meal"}, "[8]": {"details": "healthy subjects, 23 g C10 meal"}}}
{"smiles": "O=C(O)CCCCCCCCC(=O)O", "note": "[C10, sebacic acid]", "values": [{"measurement": "Delay of plasma C10 peak after 23 g C10 ingestion", "setting": "[1]; 23 g C10 ingestion", "value": 40, "unit": "min"}, {"measurement": "Time of plasma sebacate peak after the ingestion of the meal", "setting": "[1]; oral, meal enriched with C10", "value": 200, "unit": "min"}, {"measurement": "Time of plasma sebacate peak from the beginning of the experiment", "setting": "[1]; oral, meal enriched with C10", "value": 320, "unit": "min"}, {"measurement": "Change in postprandial Endogenous Glucose Production", "setting": "[2]; [5]", "value": "−10", "unit": "%"}, {"measurement": "Change in postprandial Gluconeogenesis (%)", "setting": "[2]; [5]", "value": "−2.1", "unit": "%"}, {"measurement": "Change in postprandial glycemia area under the curve (AUC)", "setting": "[2]; [5]", "value": "−17", "unit": "%"}, {"measurement": "Increase in postprandial glucose clearance", "setting": "[2]; [5]", "value": "+12.6%"}, {"measurement": "Change in postprandial Endogenous Glucose Production", "setting": "[2]; [6]", "value": "−9", "unit": "%"}, {"measurement": "Change in postprandial Gluconeogenesis (%)", "setting": "[2]; [6]", "value": "−2.3", "unit": "%"}, {"measurement": "Change in postprandial glycemia area under the curve (AUC)", "setting": "[2]; [6]", "value": "−16", "unit": "%"}, {"measurement": "Change in postprandial insulin secretion rate", "setting": "[2]; [6]", "value": "−35", "unit": "%"}, {"measurement": "Increase in postprandial glucose clearance", "setting": "[2]; [6]", "value": "+8.2%"}, {"measurement": "Glucose clearance, result in words", "setting": "[2]; diabetic patients, C10 ingestion", "value": "significantly improved"}, {"measurement": "GNG, result in words", "setting": "[2]; diabetic patients, both C10 enriched meals", "value": "significantly reduced"}, {"measurement": "Glucose AUC, result in words", "setting": "[2]; diabetic patients, meal containing 10 g of C10", "value": "significantly lower"}, {"measurement": "ISR, result in words", "setting": "[2]; diabetic patients, meal with lipids substituted with 23 g C10", "value": "significantly reduced"}, {"measurement": "EGP (endogenous glucose production)", "setting": "[2]; 10 g C10 meal", "value": "7.81 ± 3.27", "unit": "μmol · min^−1 · kgffm^−1"}, {"measurement": "Gluconeogenesis", "setting": "[2]; 10 g C10 meal", "value": "40.862 ± 3.62", "unit": "%"}, {"measurement": "Glucose clearance", "setting": "[2]; 10 g C10 meal", "value": "1.76 ± 0.13", "unit": "mL/min/kg"}, {"measurement": "Total Ra (rate of appearance of deuterated glucose)", "setting": "[2]; 10 g C10 meal", "value": "19.60 ± 2.41", "unit": "μmol · min^−1 · kgffm^−1"}, {"measurement": "Glucose AUC", "setting": "[2]; 10 g C10 meal", "value": 43700, "unit": "mg·min/dL"}, {"measurement": "Insulin AUC", "setting": "[2]; 10 g C10 meal", "value": 33500, "unit": "pM·min"}, {"measurement": "Total ISR (insulin secretion rate)", "setting": "[2]; 10 g C10 meal", "value": 213.69, "unit": "nmol"}, {"measurement": "EGP (endogenous glucose production)", "setting": "[2]; 23 g C10 meal", "value": "7.00 ± 2.47", "unit": "μmol · min^−1 · kgffm^−1"}, {"measurement": "Gluconeogenesis", "setting": "[2]; 23 g C10 meal", "value": "40.72 ± 4.00", "unit": "%"}, {"measurement": "Glucose clearance", "setting": "[2]; 23 g C10 meal", "value": "1.71 ± 0.21", "unit": "mL/min/kg"}, {"measurement": "Total Ra (rate of appearance of deuterated glucose)", "setting": "[2]; 23 g C10 meal", "value": "20.32 ± 2.19", "unit": "μmol · min^−1 · kgffm^−1"}, {"measurement": "Glucose AUC", "setting": "[2]; 23 g C10 meal", "value": 44200, "unit": "mg·min/dL"}, {"measurement": "Insulin AUC", "setting": "[2]; 23 g C10 meal", "value": 29500, "unit": "pM·min"}, {"measurement": "Total ISR (insulin secretion rate)", "setting": "[2]; 23 g C10 meal", "value": 142.27, "unit": "nmol"}, {"measurement": "EGP, result in words", "setting": "[2]; type 2 diabetics, C10 enriched meals compared with the standard meal", "value": "significantly reduced"}, {"measurement": "Change in postprandial insulinemia AUC", "setting": "[3]; healthy subjects (n=10), 23 g sebacic acid, vs control meal", "value": "−38", "unit": "%"}, {"measurement": "EGP (endogenous glucose production)", "setting": "[3]; [7]", "value": "6.30 ± 2.45", "unit": "μmol · min^−1 · kgffm^−1"}, {"measurement": "Gluconeogenesis", "setting": "[3]; [7]", "value": "31.28 ± 5.07", "unit": "%"}, {"measurement": "Glucose clearance", "setting": "[3]; [7]", "value": "2.73 ± 0.24", "unit": "mL/min/kg"}, {"measurement": "Total Ra (rate of appearance of deuterated glucose)", "setting": "[3]; [7]", "value": "20.60 ± 2.88", "unit": "μmol · min^−1 · kgffm^−1"}, {"measurement": "Glucose AUC", "setting": "[3]; [7]", "value": 37400, "unit": "mg·min/dL"}, {"measurement": "Insulin AUC", "setting": "[3]; [7]", "value": 51100, "unit": "pM·min"}, {"measurement": "Total ISR (insulin secretion rate)", "setting": "[3]; [7]", "value": 101.15, "unit": "nmol"}, {"measurement": "EGP (endogenous glucose production)", "setting": "[3]; [8]", "value": "6.172 ± 0.68", "unit": "μmol · min^−1 · kgffm^−1"}, {"measurement": "Gluconeogenesis", "setting": "[3]; [8]", "value": "31.20 ± 3.63", "unit": "%"}, {"measurement": "Glucose clearance", "setting": "[3]; [8]", "value": "2.74 ± 0.26", "unit": "mL/min/kg"}, {"measurement": "Total Ra (rate of appearance of deuterated glucose)", "setting": "[3]; [8]", "value": "21.20 ± 1.30", "unit": "μmol · min^−1 · kgffm^−1"}, {"measurement": "Glucose AUC", "setting": "[3]; [8]", "value": 38100, "unit": "mg·min/dL"}, {"measurement": "Insulin AUC", "setting": "[3]; [8]", "value": 39200, "unit": "pM·min"}, {"measurement": "Total ISR (insulin secretion rate)", "setting": "[3]; [8]", "value": 93.60, "unit": "nmol"}, {"measurement": "Glucose clearance, result in words", "setting": "[3]; healthy subjects, C10 ingestion", "value": "significantly improved"}, {"measurement": "ISR, result in words", "setting": "[3]; healthy subjects, meal with lipids substituted with 23 g C10", "value": "significantly reduced"}, {"measurement": "Plasma C10 peak times compared with controls", "setting": "[4]; T2D subjects", "value": "the peak times were maintained"}, {"measurement": "Plasma C10 concentration relative to values reached in controls", "setting": "[4]; T2D subjects vs healthy controls", "value": "about 1.5 times"}]}
